Activity calls are given as the source filed them.
Legend:
[1] = HepG2 cell cytotoxicity, dose response, cytotoxicity control, plate reader, cherry-pick, antagonist series (AID 743416); assay type: functional, cell-based
[2] = non-specific cell cytotoxicity, dose response, cytotoxicity control for PAX8 inhibitor project, plate reader, dry powder samples (AID 743021); assay type: functional, cell-based
HEK293 = assay: inhibitors of LMP1-driven NF-kB reporter, dose response, cell-based, HEK293, luciferase, cherry-pick (AID 588343); assay type: functional; details: Homo sapiens
[3] = microbe, parasite or virus in culture; assay type: functional; details: Mycobacterium tuberculosis
[4] = inhibitors of CMV-promoter luciferase reporter, dose response, counter-screen for Pax8 inhibitor project, cell-based, HEK293, luminescence, dry powder (AID 743020); assay type: functional
[5] = Luminescence-based counterscreen assay for KLF5 inhibitors: dose response cell-based high throughput screening assay to identify cytotoxic compounds using the IEC-6 intestinal epithelial cell line. [Related pubchem assays: 1700 (Primary screen.), 1834 (Confirmation screen.), 1858 (Summary AID.), 1905 (Counterscreen.)]; assay type: functional
[6] = MC4R antagonists, dose response, counter-screen for LGR2 antagonist project, cell-based, plate reader, cherry pick (AID 743444); assay type: functional;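 further: transfected HEK 293 cells stimulated with alpha-MSH peptide; potency of inhibitors of the alpha-MSH evoked signal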
[7] = cytotoxicity in HEK-293T cells, dose response, cytotoxicity control for BCR NF-kB inhibitor project, luminescence, B-cell screen hits (AID 489021); assay type: functional, cell-based;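 further: HEK-293T cells carrying an NF-kB luciferase reporter; cells exposed to compound for about 14 hours before viability readout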
[8] = HEK293 cell cytotoxicity, dose response, cytotoxicity control, plate reader, cherry-picked samples (AID 743446); assay type: functional, cell-based
[9] = molecular target: T1, Heat shock factor protein 1 (Mus musculus, UniProt P38532); assay: inhibition of MG132-induced HSE-luciferase signal, confirmation, cell-based, NIH3T3, luminescence, dose retest (AID 2382); assay type: functional;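 further: NIH3T3 fibroblasts with HSF1-driven luciferase reporter stressed by proteasome inhibitor MG132; luminescence from HSF1-driven luciferase expression after 8 hours of MG132 stress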
T1 sequence (P38532 whole entry): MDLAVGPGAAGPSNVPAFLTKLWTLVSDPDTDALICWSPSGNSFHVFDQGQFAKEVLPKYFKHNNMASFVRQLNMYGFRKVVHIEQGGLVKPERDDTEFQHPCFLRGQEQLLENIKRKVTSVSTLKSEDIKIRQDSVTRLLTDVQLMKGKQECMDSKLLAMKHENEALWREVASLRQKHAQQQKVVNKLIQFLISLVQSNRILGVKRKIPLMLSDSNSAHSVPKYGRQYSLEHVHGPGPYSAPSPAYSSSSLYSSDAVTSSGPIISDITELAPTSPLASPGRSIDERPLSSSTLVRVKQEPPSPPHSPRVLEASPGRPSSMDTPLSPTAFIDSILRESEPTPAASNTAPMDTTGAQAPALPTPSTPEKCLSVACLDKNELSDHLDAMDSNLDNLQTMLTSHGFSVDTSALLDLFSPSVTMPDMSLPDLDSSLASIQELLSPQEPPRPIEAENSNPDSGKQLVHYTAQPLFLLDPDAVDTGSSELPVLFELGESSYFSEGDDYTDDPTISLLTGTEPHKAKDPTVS

Paired box protein Pax-8 = Paired box protein Pax-8 (Homo sapiens, UniProt Q06710); assay: inhibitors of PAX8-driven TPO luciferase reporter, dose response, RMG-I cells, cherry-pick (AID 687027); assay type: functional, cell-based;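 further: luciferase reporter driven by Pax8 target thyroperoxidase promoter measured by SteadyGlo luminescence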
[10] = A549 cell cytotoxicity, dose response, cytotoxicity control, plate reader, cherry-pick, antagonist series (AID 743412); assay type: functional, cell-based
[11] = LGR2 antagonists, dose response, cell-based, HEK293, CRE-luciferase reporter, cherry pick, set 2 (AID 743343); assay type: functional;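 further: transfected cells were stimulated with diluted bursicon conditioned medium after compound addition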
[12] = molecular target: T2, Neuropeptide Y receptor type 2 (Homo sapiens, UniProt P49146); assay type: functional, cell-based;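 further: HEK293 cells expressing the receptor and a CNG channel; stimulus was NPY near EC95 followed by isoproterenol to raise cAMP; antagonist potency measured as restoring cAMP signal that NPY suppresses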
T2 sequence (P49146 whole entry): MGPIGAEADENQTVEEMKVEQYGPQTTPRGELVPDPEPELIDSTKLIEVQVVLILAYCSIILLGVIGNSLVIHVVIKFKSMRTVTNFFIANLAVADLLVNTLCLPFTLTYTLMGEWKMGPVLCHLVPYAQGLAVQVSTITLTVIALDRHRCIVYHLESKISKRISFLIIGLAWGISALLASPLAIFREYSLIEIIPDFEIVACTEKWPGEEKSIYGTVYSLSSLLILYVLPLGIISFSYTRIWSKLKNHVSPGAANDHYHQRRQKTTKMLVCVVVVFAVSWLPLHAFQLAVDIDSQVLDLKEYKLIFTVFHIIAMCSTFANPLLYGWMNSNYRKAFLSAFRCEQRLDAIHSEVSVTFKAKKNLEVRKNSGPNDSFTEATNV

[13] = cytotoxicity in HPDE-C7 cells, cell-based, fluorescence, HTS (AID 430); assay type: functional; details: Homo sapiens
[14] = half-maximal inhibitory concentration for glucagon-like peptide-1 release, STC-1 cell line, dose-response (AID 1117345); assay type: functional, cell-based
[15] = molecular target: T3, Ubiquitin-conjugating enzyme E2 N (Homo sapiens, UniProt P61088); assay type: functional;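 further: Dose-response confirmation in a TR-FRET assay detecting UBC13-driven polyubiquitin chain formation, inhibition measured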
T3 sequence (P61088 whole entry): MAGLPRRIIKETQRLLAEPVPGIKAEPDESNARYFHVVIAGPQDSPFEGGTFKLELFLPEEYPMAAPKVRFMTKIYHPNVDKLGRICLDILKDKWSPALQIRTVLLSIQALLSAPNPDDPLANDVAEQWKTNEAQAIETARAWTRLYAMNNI

[16] = Glucagon-like peptide 1 release potency, NCI-H716 cell line, dose-response, half-maximal inhibitory concentration (AID 1117344); assay type: functional, cell-based
[17] = molecular target: T4, Aryl hydrocarbon receptor (Homo sapiens, UniProt P35869); details: Potency;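 further: confirmatory quantitative high-throughput screen measuring activation of the AhR signaling pathway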
T4 sequence (P35869 whole entry): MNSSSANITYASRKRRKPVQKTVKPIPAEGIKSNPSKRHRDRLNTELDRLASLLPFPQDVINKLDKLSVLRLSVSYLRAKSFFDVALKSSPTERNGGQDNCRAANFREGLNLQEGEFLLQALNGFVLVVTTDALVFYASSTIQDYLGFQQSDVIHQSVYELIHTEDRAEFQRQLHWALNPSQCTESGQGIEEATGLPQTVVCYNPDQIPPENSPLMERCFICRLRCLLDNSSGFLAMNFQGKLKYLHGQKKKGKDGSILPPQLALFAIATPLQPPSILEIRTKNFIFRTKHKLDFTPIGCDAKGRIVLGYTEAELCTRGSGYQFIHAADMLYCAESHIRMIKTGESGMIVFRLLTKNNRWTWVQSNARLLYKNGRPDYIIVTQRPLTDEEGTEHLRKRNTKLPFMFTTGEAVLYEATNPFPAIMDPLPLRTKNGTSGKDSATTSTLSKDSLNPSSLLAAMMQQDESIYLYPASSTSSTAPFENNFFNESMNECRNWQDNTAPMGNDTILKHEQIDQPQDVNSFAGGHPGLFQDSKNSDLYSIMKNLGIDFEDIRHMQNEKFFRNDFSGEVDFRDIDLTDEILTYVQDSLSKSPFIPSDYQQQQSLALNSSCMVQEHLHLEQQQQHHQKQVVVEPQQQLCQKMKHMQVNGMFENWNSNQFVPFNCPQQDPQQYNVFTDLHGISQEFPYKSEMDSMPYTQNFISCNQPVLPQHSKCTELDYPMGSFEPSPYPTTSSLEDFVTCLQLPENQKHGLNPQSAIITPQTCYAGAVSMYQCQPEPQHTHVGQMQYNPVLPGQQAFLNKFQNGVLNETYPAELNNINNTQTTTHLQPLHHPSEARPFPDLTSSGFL

[18] = molecular target: Heat shock protein HSP 90-alpha (Homo sapiens, UniProt P07900); assay type: functional, organism-based
[19] = cytotoxicity in KRAS-transformed pancreatic duct cells, primary screen, cell-based, fluorescence, HTS (AID 431); assay type: functional; details: Homo sapiens;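 further: cell line used: HPDE-C7K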
[20] = A Cell Based Secondary Assay To Explore Cytotoxicity of Compounds that Sensitize Mycobacterium Tuberculosis to Beta-Lactam Antibiotics.; assay type: functional

Chain of Paired box protein Pax-8 (Q06710 whole entry): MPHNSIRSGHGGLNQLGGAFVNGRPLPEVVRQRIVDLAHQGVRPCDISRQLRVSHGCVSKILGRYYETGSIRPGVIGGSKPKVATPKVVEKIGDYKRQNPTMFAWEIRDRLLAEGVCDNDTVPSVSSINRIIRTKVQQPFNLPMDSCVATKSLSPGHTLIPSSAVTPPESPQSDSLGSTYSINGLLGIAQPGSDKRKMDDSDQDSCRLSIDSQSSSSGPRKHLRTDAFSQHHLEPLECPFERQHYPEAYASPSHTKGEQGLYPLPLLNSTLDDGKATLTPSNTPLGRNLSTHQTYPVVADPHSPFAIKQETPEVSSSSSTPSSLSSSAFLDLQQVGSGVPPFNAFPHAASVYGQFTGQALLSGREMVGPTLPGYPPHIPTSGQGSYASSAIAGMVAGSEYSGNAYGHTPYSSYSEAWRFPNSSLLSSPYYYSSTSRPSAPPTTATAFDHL

Compound: COc1ccc(OCc2cccc(C(=O)Nn3cc([N+](=O)[O-])cn3)c2)cc1
- AC50 [1]: 34.1 µM (active)
- AC50 [2]: 10.1 µM (active)
- AC50 (HEK293): 0.709 µM (active)
- CC50 [3]: > 40 µM (active)
- AC50 [4]: 21 µM (active)
- IC50 [5]: > 39.8 µM (not active)
- AC50 [6]: 0.462 µM (active)
- IC50 [7]: > 80 µM (inactive)
- AC50 [8]: > 52 µM (inactive)
- EC50 [9]: 4.92 µM (active)
- AC50 (Paired box protein Pax-8): 1.13 µM (active)
- AC50 [10]: > 52 µM (inactive)
- AC50 [11]: 0.407 µM (active)

Compound: Clc1ccc(COC(Cn2ccnc2)c2ccc(Cl)cc2Cl)cc1 (configuration not stated) [ECONAZOLE NITRATE]
- IC50 [12]: 8.02 µM (active)
- EC50 [13]: 15.9 µM (active)
- IC50 [14]: 4.29 µM (active)
- IC50 [15]: > 20 µM (inactive)
- IC50 [16]: 25.6 µM (inactive)
- AC50 [17]: 56.2 µM (inconclusive)
- AC50 [18]: 0.267 µM (active)
- EC50 [19]: 15.4 µM (active)

Compound: CC(C)CC(=O)N1CCN(c2ccc([N+](=O)[O-])c(NCc3ccccc3)c2)CC1
- CC50 [20]: > 40 µM (active)
